This is an account of results in ChEMBL document CHEMBL4390652, “Design, biological evaluation and X-ray crystallography of nanomolar multifunctional ligands targeting simultaneously acetylcholinesterase and glycogen synthase kinase-3” (Eur J Med Chem, 2019).

Assay [1] has as its target Cyclin-dependent kinase 8 (Homo sapiens) (UniProt P49336). Nature of the assay: Binding affinity to wild-type human partial length CDK8 (M1 to T360 residues) expressed in bacterial expression system assessed as residual binding level at 10 uM by Kinomescan method relative to control.
Assay [2] has as its system Phosphatidylinositol 4,5-bisphosphate 3-kinase catalytic subunit alpha isoform (Homo sapiens), P42336 [H1047Y]. The assay is described as follows: Binding affinity to human partial length PIK3CA H1047Y mutant (R108 to N1068 residues) expressed in mammalian expression system assessed as residual binding level at 10 uM by Kinomescan method relative to control.
Assay [3] deals with Serine/threonine-protein kinase WNK3 (Homo sapiens) (UniProt Q9BYP7). The assay is described as follows: Binding affinity to wild-type human partial length WNK3 (M1 to D434 residues) expressed in mammalian expression system assessed as residual binding level at 10 uM by Kinomescan method relative to control.
In assay [4] the target is Serine/threonine-protein kinase Chk1 (Homo sapiens) (UniProt O14757). Nature of the assay: Binding affinity to wild-type human partial length CHEK1 (M1 to G289 residues) expressed in bacterial expression system assessed as residual binding level at 10 uM by Kinomescan method relative to control.
Assay [5] concerns Mast/stem cell growth factor receptor Kit (Homo sapiens), P10721 [V559D]. The assay is described as follows: Binding affinity to human partial length KIT V559D mutant (Y545 to D952 residues) expressed in bacterial expression system assessed as residual binding level at 10 uM by Kinomescan method relative to control.
Assay [6] deals with Protein kinase C iota type (Homo sapiens) (UniProt P41743). Nature of the assay: Binding affinity to wild-type human partial length PRKCI (H215 to V587 residues) expressed in mammalian expression system assessed as residual binding level at 10 uM by Kinomescan method relative to control.
Assay [7] has as its target Serine/threonine-protein kinase LATS2 (Homo sapiens) (UniProt Q9NRM7). Nature of the assay: Binding affinity to wild-type human partial length LATS2 (Q641 to V1088 residues) expressed in mammalian expression system assessed as residual binding level at 10 uM by Kinomescan method relative to control.
Assay [8] concerns the target Dual specificity tyrosine-phosphorylation-regulated kinase 1B (Homo sapiens) (UniProt Q9Y463). The assay is described as follows: Binding affinity to wild-type human full length DYRK1B (M1 to S629 residues) expressed in bacterial expression system assessed as residual binding level at 10 uM by Kinomescan method relative to control.
For assay [9], the target named is Serine/threonine-protein kinase MAK (Homo sapiens) (UniProt P20794). The assay is described as follows: Binding affinity to wild-type human partial length MAK (M1 to P314 residues) expressed in bacterial expression system assessed as residual binding level at 10 uM by Kinomescan method relative to control.
In assay [10] the target is Protein kinase C theta type (Homo sapiens) (UniProt Q04759). Nature of the assay: Binding affinity to wild-type human partial length PRKCQ (L350 to S706 residues) expressed in bacterial expression system assessed as residual binding level at 10 uM by Kinomescan method relative to control.
Assay [11] deals with Homeodomain-interacting protein kinase 2 (Homo sapiens) (UniProt Q9H2X6). Nature of the assay: Binding affinity to wild-type human partial length HIPK2 (M153 to S564 residues) expressed in mammalian expression system assessed as residual binding level at 10 uM by Kinomescan method relative to control.
Assay [12] deals with Tyrosine-protein kinase Lyn (Homo sapiens) (UniProt P07948). The assay is described as follows: Binding affinity to wild-type human partial length LYN (C219 to Q511 residues) expressed in bacterial expression system assessed as residual binding level at 10 uM by Kinomescan method relative to control.
Assay [13] has as its system Phosphatidylinositol 4,5-bisphosphate 3-kinase catalytic subunit alpha isoform (Homo sapiens), P42336 [E545K]. Nature of the assay: Binding affinity to human partial length PIK3CA E545K mutant (R108 to N1068 residues) expressed in mammalian expression system assessed as residual binding level at 10 uM by Kinomescan method relative to control.
Assay [14] addresses CDK4/Cyclin D3 (Homo sapiens) (UniProt P11802+P30281). The assay is described as follows: Binding affinity to wild-type human full length CDK4/cyclinD3 (M1 to E303 residues) expressed in mammalian expression system assessed as residual binding level at 10 uM by Kinomescan method relative to control.
The target in assay [15] is Phosphatidylinositol 5-phosphate 4-kinase type-2 gamma (Homo sapiens) (UniProt Q8TBX8). Nature of the assay: Binding affinity to wild-type human partial length PIP5K2C (M1 to A421 residues) expressed in mammalian expression system assessed as residual binding level at 10 uM by Kinomescan method relative to control.
Assay [16] addresses Serine/threonine-protein kinase NIM1 (Homo sapiens) (UniProt Q8IY84). Nature of the assay: Binding affinity to wild-type human partial length NIM1 (Q44 to N355 residues) expressed in mammalian expression system assessed as residual binding level at 10 uM by Kinomescan method relative to control.
The target of assay [17] is Mitogen-activated protein kinase kinase kinase 11 (Homo sapiens) (UniProt Q16584). Nature of the assay: Binding affinity to wild-type human partial length MLK3 (I77 to W399 residues) expressed in bacterial expression system assessed as residual binding level at 10 uM by Kinomescan method relative to control.
Assay [18] has as its target Ephrin type-A receptor 5 (Homo sapiens) (UniProt P54756). The assay is described as follows: Binding affinity to wild-type human partial length EPHA5 (T627 to V930 residues) expressed in bacterial expression system assessed as residual binding level at 10 uM by Kinomescan method relative to control.
The target in assay [19] is Discoidin domain-containing receptor 2 (Homo sapiens) (UniProt Q16832). Nature of the assay: Binding affinity to wild-type human partial length DDR2 (V555 to E855 residues) expressed in mammalian expression system assessed as residual binding level at 10 uM by Kinomescan method relative to control.
Assay [20] has as its target Platelet-derived growth factor receptor beta (Homo sapiens) (UniProt P09619). The assay is described as follows: Binding affinity to wild-type human partial length PDGFRB (V582 to Y1009 residues) expressed in bacterial expression system assessed as residual binding level at 10 uM by Kinomescan method relative to control.
Assay [21] deals with ALK tyrosine kinase receptor (Homo sapiens) (UniProt Q9UM73). Nature of the assay: Binding affinity to wild-type human partial length ALK (I1088 to E1409 residues) expressed in mammalian expression system assessed as residual binding level at 10 uM by Kinomescan method relative to control.
Assay [22] deals with Uncharacterized serine/threonine-protein kinase SBK3 (Homo sapiens) (UniProt P0C264). The assay is described as follows: Binding affinity to wild-type human partial length SgK110 (L22 to R329 residues) expressed in bacterial expression system assessed as residual binding level at 10 uM by Kinomescan method relative to control.
The subject of assay [23] is Tyrosine-protein kinase ABL1 (Homo sapiens), P00519 [Y253F]. The assay is described as follows: Binding affinity to human phosphorylated ABL1 Y253F mutant (S229 to K512 residues) expressed in mammalian expression system assessed as residual binding level at 10 uM by Kinomescan method relative to control.
Assay [24] deals with Phosphatidylinositol 4,5-bisphosphate 3-kinase catalytic subunit alpha isoform (Homo sapiens), P42336 [C420R]. The assay is described as follows: Binding affinity to human partial length PIK3CA C420R mutant (R108 to N1068 residues) expressed in mammalian expression system assessed as residual binding level at 10 uM by Kinomescan method relative to control.

Each structure is given as a SMILES string.

Serine/threonine-protein kinase LATS2 (Homo sapiens), sequence (Q9NRM7 whole entry, the tested form may be a part): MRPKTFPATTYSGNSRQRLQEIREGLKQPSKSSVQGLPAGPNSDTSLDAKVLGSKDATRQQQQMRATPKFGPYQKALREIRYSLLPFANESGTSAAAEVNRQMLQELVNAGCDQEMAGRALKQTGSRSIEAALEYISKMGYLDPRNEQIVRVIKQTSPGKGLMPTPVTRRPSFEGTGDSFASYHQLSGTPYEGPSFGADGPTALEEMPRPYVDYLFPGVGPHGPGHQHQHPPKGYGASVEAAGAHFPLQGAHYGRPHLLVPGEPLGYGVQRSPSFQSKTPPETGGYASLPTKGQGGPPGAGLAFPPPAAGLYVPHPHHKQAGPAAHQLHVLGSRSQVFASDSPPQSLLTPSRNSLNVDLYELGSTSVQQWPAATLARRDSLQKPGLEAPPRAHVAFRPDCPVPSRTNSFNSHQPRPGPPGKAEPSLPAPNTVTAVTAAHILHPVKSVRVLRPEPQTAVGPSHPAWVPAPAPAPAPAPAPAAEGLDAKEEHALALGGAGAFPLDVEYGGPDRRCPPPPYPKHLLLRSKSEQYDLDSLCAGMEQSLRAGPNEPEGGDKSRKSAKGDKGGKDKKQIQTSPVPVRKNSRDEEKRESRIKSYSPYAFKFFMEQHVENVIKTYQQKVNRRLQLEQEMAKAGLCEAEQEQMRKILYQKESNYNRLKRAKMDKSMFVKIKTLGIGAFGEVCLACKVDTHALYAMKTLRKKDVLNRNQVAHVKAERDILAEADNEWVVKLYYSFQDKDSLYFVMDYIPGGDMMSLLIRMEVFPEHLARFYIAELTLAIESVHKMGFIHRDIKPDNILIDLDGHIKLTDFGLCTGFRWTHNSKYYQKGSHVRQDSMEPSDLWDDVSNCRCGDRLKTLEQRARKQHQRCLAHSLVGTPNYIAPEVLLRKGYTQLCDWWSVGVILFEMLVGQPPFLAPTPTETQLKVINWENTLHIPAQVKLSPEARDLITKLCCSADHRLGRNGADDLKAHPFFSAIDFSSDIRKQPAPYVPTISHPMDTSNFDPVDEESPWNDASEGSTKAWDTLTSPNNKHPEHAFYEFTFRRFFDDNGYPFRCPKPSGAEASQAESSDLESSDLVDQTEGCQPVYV
Protein kinase C iota type (Homo sapiens), sequence (P41743 whole entry, the tested form may be a part): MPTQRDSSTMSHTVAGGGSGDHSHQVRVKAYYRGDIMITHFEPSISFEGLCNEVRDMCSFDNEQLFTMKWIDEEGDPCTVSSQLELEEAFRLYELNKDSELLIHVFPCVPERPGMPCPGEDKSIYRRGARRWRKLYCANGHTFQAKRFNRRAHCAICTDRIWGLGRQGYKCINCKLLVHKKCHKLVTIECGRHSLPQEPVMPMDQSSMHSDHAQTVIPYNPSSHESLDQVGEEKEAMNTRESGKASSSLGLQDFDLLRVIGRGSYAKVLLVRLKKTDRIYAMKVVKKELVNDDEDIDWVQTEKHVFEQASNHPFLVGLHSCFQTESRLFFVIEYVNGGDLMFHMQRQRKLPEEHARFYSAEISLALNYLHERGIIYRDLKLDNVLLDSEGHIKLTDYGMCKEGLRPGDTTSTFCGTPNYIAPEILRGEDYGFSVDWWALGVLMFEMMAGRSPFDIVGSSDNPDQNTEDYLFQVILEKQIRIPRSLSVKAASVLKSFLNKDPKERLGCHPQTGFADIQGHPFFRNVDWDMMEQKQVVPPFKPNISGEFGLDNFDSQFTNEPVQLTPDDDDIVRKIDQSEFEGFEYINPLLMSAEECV
Phosphatidylinositol 5-phosphate 4-kinase type-2 gamma (Homo sapiens), sequence (Q8TBX8 whole entry, the tested form may be a part): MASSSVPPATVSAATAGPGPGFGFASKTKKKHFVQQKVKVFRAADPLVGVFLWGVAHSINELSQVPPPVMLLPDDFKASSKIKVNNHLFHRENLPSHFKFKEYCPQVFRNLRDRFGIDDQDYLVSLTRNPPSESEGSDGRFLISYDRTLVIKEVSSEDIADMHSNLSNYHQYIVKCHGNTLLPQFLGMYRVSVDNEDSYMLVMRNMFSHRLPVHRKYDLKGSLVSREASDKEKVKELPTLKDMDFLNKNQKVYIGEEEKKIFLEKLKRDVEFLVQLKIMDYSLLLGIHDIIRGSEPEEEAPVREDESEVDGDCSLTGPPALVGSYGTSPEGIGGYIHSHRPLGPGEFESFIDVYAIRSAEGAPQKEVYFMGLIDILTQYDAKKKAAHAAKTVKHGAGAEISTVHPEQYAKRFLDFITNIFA
Phosphatidylinositol 4,5-bisphosphate 3-kinase catalytic subunit alpha isoform (Homo sapiens), P42336 [E545K], sequence (P42336 whole entry E545K, the tested form may be a part, canonical isoform): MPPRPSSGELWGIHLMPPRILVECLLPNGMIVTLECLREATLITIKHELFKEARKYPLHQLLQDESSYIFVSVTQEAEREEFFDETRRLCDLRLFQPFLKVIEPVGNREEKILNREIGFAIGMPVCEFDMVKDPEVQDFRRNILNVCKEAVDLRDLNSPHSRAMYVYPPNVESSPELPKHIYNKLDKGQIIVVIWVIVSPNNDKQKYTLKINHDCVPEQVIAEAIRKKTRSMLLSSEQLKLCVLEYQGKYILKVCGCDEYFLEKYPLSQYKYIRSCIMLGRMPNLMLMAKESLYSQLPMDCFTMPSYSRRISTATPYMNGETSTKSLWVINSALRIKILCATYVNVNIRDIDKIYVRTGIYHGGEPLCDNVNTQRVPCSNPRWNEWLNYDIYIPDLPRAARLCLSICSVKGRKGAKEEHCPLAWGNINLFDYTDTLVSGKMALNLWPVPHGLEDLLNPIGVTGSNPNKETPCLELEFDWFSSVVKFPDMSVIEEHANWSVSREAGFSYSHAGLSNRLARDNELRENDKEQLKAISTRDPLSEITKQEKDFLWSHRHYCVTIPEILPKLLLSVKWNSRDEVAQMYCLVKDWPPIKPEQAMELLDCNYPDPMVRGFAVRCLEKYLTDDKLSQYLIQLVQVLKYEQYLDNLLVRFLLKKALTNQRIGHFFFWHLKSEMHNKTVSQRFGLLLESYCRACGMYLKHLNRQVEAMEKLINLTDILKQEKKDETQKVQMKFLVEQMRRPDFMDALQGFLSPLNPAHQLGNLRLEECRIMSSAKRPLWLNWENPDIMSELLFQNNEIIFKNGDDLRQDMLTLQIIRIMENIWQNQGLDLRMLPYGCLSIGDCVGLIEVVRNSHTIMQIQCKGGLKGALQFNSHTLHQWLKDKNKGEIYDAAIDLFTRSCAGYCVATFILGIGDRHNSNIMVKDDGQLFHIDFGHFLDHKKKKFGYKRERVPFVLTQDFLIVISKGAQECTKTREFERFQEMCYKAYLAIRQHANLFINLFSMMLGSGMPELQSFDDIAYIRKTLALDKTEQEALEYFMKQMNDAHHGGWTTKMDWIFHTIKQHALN
Phosphatidylinositol 4,5-bisphosphate 3-kinase catalytic subunit alpha isoform (Homo sapiens), P42336 [C420R], sequence (P42336 whole entry C420R, the tested form may be a part, canonical isoform): as the sequence (P42336 whole entry E545K, the tested form may be a part, canonical isoform) above, with C420R, K545E counted along it
Serine/threonine-protein kinase MAK (Homo sapiens), sequence (P20794 whole entry, the tested form may be a part): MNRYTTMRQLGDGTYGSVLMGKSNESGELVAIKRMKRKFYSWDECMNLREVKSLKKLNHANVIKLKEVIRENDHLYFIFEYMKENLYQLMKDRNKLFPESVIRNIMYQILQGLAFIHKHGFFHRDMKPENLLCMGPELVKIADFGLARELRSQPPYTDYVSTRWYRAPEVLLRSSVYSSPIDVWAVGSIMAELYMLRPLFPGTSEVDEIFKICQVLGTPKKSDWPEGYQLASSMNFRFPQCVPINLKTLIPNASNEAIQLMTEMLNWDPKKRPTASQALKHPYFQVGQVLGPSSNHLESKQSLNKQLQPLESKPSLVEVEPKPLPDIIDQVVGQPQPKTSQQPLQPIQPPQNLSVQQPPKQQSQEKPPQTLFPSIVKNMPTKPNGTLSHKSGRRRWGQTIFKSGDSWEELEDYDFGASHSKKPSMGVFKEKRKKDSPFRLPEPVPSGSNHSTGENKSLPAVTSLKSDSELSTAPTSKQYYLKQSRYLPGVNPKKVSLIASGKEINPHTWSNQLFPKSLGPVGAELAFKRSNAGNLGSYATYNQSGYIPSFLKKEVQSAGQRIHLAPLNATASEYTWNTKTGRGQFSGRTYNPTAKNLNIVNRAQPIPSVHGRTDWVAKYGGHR

As to `O=C(Nc1cc(-c2cn(CCNc3c4c(nc5ccccc35)CCCC4)nn2)ccn1)Nc1cccc2c1C1CCCCN1C2=O` (racemic), the Activity amounted to 64% in assay [1]; 86% in assay [2]; 100% in [3]; 92% in assay [4]; 0.05% in [5]; 100% in assay [6]. Further, the Activity in [7] amounted to 65%; in [8], 3.7%; in assay [9] it was 52%; in assay [10], 27%; in [11] it was 49%; in assay [12] it was 83%. Moreover, the Activity in assay [13] amounted to 78%; in assay [14], 1.4%; in [15] it was 3.4%; in [16], 83%; in assay [17], 58%; in [18] it was 81%. Also, the Activity is 4.2% in assay [19]; 2.3% in assay [20]; 100% in assay [21]; 100% in assay [22]; 0.95% in [23]; 72% in assay [24].
